Like-named read-outs stand apart in the source and are kept apart here.
What was measured:
aspirin-induced bleeding = conditions: rat
Description: The effect of glyceryl guaiacolate (Compound 8) on aspirin-induced bleeding in rats was studied using the following procedure. Female Sprague-Dawley rats, weighing 140-160 g. and fasted for 24 hrs. on wire were divided into groups of 10 animals each. All animals were anesthetized with Metofane® and a ligature placed at the pyloric-duodenal junction. Groups serving as controls received normal saline (4.0 ml/kg, i.p.). Some groups received normal saline and in addition were given aspirin (375 mg/kg, p.o.) in artificial gastric juice; the remaining groups received aspirin in the same amount and also glyceryl guaiacolate 30 min. prior to the aspirin. The aspirin was administered in artificial gastric juice (USP, […]) in a total volume of 2 ml. to each rat. Following a recovery period of 1 hr. the animals received saline, aspirin and glyceryl guaiacolate in the amounts and by the routes indicated. In most of the experiments, 90 min. following aspirin the rats were sacrificed by cervical dislocation. The stomachs were removed and gastric contents collected for further analysis. […] Hemoglobin loss produced by the aspirin was determined by the colorimetric method of Bing and Baker (J. Biol. Chem. 92: 589, 1931). The condition of the gastric mucosa was also assessed by determining the incidence and severity of damage using the scoring system described hereinabove to obtain the "Gastric Bleeding Index".
Following the procedure of Example 26, methocarbamol (Compound 3 ) was tested further in rats via intraperitoneal and intraduodenal administration.

[1] = system: aspirin-induced gastric bleeding; test: Aspirin-induced gastric bleeding in Cr51 labeled Heidenhain pouch dogs, oral; type: in vivo; conditions: dog
Description: Methocarbamol (Compound 3) and Metaxalone (Compound 15) were evaluated for their effectiveness upon oral administration against aspirin-induced gastric bleeding in dogs. Three female chronic Heindehain pouch dogs were used. Red blood cells from each dog were labeled with Cr^51. The dogs were fasted 24 hours prior to any study and three days elapsed between studies. On experimental days each fundic pouch was rinsed with tepid tap water and then filled with 10 ml. of normal saline. After 30 minutes the saline was replaced with 10 ml. of artificial gastric juice (USP, pH 1.3). The dogs were given Compound 3 (200 mg/kg) or Compound 15 (50 and 100 mg/kg) or placebo (starch) orally in gelatin capsules. The 10 ml. of gastric juice was removed from the pouch after 60 minutes and replaced with another 10 ml. of juice containing 100 mg. of aspirin (80 mesh). This was likewise removed after 60 minutes. All samples collected from the pouches were counted for radio-activity using a deep-well counter. From the amount of radio-activity present in the gastric samples, the loss of blood into the pouch was determined. The results are shown in Table 3 and show the effectiveness of orally administering Compounds 3 and 15 in preventing aspirin-induced gastric bleeding.

[2] = system: aspirin-induced gastric bleeding; test: Prevention of aspirin-induced gastric bleeding in pyloric-ligated rats, i.p. test compound (Examples 1-22); type: in vivo, Female Sprague-Dawley rats; conditions: rat; for Gastric Bleeding Index: score 0 to 40
Description: The prevention of aspirin-induced bleeding in rats was determined by the following procedure. Female Sprague-Dawley rats weighing 150-180 g. were fasted for 24 hours on wire and divided into groups of six animals each. The rats were anesthetized and a ligature placed at the pyloric-duodenal junction. Groups serving as controls received normal saline (4.0 ml/kg, i.p.). […] Some of the compounds were tested at 50 mg/kg, i.p. The rats were sacrificed 60 min. after aspirin administration by cervical dislocation. The volume of the gastric contents was determined and compared against that produced with the same amount of aspirin for change in volume. […] (Gradation between 0 to 40 is on an even scale).

[3] = system: aspirin-induced gastric bleeding; type: in vivo, cats; conditions: cat
Description: Fasted cats weighing […] were anesthetized with phenobarbital sodium (130 mg/kg, i.p.). Glyceryl guaiacolate was administered intravenously for a total of 2 hrs. beginning 60 min. prior to the topical application of the aspirin (10 mg) to the gastric mucosa. Throughout the experiment, artificial gastric juice (USP, pH 1.3) bathed the mucosa by means of the specially designed chamber. The number of bleeding sites occurring at various exposure sites were recorded at 15, 30 and 60 min. Glyceryl guaiacolate was given at doses of 10 and 30 mg/kg/hr via a previously cannulated jugular vein using an infusion pump (Harvard Apparatus Co., Model 1202). […] An important point is that with 30 mg/kg/hr, i.v., of glyercyl guaiacolate there was no bleeding at 30 min. compared with an average of 14 bleeding sites when no glyceryl guaiacolate was adminsitered. A total of 23 cats were used and there was a minimum of 24 aspirin exposure sites for each dose of glyceryl guaiacolate.

[4] = 50 mg/kg i.p., aspirin 375 p.o.
[5] = 50 mg/kg i.p., aspirin 375 p.o., ± S.E.
[6] = 100 mg/kg intraduodenal, aspirin 375 p.o.
[7] = 100 mg/kg intraduodenal, aspirin 375 p.o., ± S.E., P <0.05
[8] = 200 mg/kg i.p., aspirin 375 p.o., ± S.E., P <0.05
[9] = 200 mg/kg intraduodenal, aspirin 375 p.o., ± S.E., P <0.05
[10] = 400 mg/kg intraduodenal, aspirin 375 p.o., ± S.E., P <0.05
[11] = ip, 1 h, 100 mg/kg i.p., aspirin 375 mg/kg p.o., read-out: Percent Decrease in Mucosal Bleeding vs Control
[12] = ip, 100 mg/kg i.p. (column head states no dose), aspirin 375 mg/kg p.o., read-out: Vol. % Decrease in Gastric Secretion
[13] = 100 mg/kg i.p. (column head states no dose), aspirin 375 mg/kg p.o.
[14] = 50 mg/kg i.p., aspirin ca 375 p.o., Series 2
[15] = 50 mg/kg i.p., aspirin ca 375 p.o., Series 2, ± S.E.
[16] = 50 mg/kg intraduodenal, aspirin ca 375 p.o.
[17] = 50 mg/kg intraduodenal, aspirin ca 375 p.o., ± S.E.
[18] = 50 mg/kg oral, aspirin ca 375 p.o., Series 3
[19] = 50 mg/kg oral, aspirin ca 375 p.o., Series 3, ± S.E.
[20] = 100 mg/kg i.p., aspirin ca 375 p.o., Series 1, ± S.E., P <0.05
[21] = 100 mg/kg i.p., aspirin ca 375 p.o., Series 1, P <0.05
[22] = 100 mg/kg intraduodenal, aspirin ca 375 p.o., ± S.E., P <0.05
[23] = 100 mg/kg intraduodenal, aspirin ca 375 p.o., P <0.05
[24] = 100 mg/kg oral, aspirin ca 375 p.o., Series 3
[25] = 100 mg/kg oral, aspirin ca 375 p.o., Series 3, ± S.E.
[26] = 200 mg/kg i.p., aspirin ca 375 p.o., Series 2, ± S.E., P <0.05
[27] = 200 mg/kg i.p., aspirin ca 375 p.o., Series 2, P <0.05
[28] = 200 mg/kg intraduodenal, aspirin ca 375 p.o., ± S.E., P <0.05
[29] = 200 mg/kg intraduodenal, aspirin ca 375 p.o., P <0.05
[30] = 200 mg/kg oral, aspirin ca 375 p.o., Series 3, ± S.E.

## COc1ccccc1OCC(O)COC(N)=O (stereo not shown) [Compound 3, 3-(o-methoxyphenoxy)-1,2-propanediol-1-carbamate]
aspirin-induced bleeding; [4]
  Gastric Bleeding Index: 34 ± 2
  Percent Decrease In Mucosal Hemorrhage vs. Control: none
aspirin-induced bleeding; [5]
  Total Hemoglobin Loss: 22.4 ± 2.4 mg
  Volume Gastric Secretion: 6.2 ± 0.5 mL
aspirin-induced bleeding; 100 mg/kg i.p., aspirin 375 p.o.
  Percent Decrease In Mucosal Hemorrhage vs. Control: 62%
aspirin-induced bleeding; 100 mg/kg i.p., aspirin 375 p.o., ± S.E.
  Volume Gastric Secretion: 5.5 ± 0.3 mL
aspirin-induced bleeding; 100 mg/kg i.p., aspirin 375 p.o., ± S.E., P <0.05
  Total Hemoglobin Loss: 11.6 ± 3.6 mg
aspirin-induced bleeding; 100 mg/kg i.p., aspirin 375 p.o., P <0.05
  Gastric Bleeding Index: 13 ± 6
aspirin-induced bleeding; [6]
  Gastric Bleeding Index: 24 ± 3
  Percent Decrease In Mucosal Hemorrhage vs. Control: 27%
aspirin-induced bleeding; [7]
  Total Hemoglobin Loss: 27.8 ± 0.1 mg
  Volume Gastric Secretion: 5.0 ± 0.1 mL
aspirin-induced bleeding; 200 mg/kg i.p., aspirin 375 p.o.
  Percent Decrease In Mucosal Hemorrhage vs. Control: 97%
aspirin-induced bleeding; [8]
  Total Hemoglobin Loss: 1.5 ± 0.5 mg
  Volume Gastric Secretion: 3.7 ± 0.4 mL
aspirin-induced bleeding; 200 mg/kg i.p., aspirin 375 p.o., P <0.05
  Gastric Bleeding Index: 1 ± 1
aspirin-induced bleeding; 200 mg/kg intraduodenal, aspirin 375 p.o.
  Percent Decrease In Mucosal Hemorrhage vs. Control: 67%
aspirin-induced bleeding; [9]
  Total Hemoglobin Loss: 7.0 ± 2.8 mg
  Volume Gastric Secretion: 3.5 ± 0.6 mL
aspirin-induced bleeding; 200 mg/kg intraduodenal, aspirin 375 p.o., P <0.05
  Gastric Bleeding Index: 11 ± 6
aspirin-induced bleeding; 400 mg/kg intraduodenal, aspirin 375 p.o.
  Percent Decrease In Mucosal Hemorrhage vs. Control: 99%
aspirin-induced bleeding; [10]
  Total Hemoglobin Loss: 5.1 ± 3.6 mg
  Volume Gastric Secretion: 1.3 ± 0.1 mL
aspirin-induced bleeding; 400 mg/kg intraduodenal, aspirin 375 p.o., P <0.05
  Gastric Bleeding Index: 0.4 ± 1
aspirin-induced bleeding; one part by weight methocarbamol to 3.75 parts aspirin
  reducing bleeding (in words): significantly effective
[1]; 200 mg/kg p.o.
  % Protection: 79%
[1]; 200 mg/kg p.o., ± S.E.
  Mucosal Blood Loss, HCl + Aspirin: 6.6 ± 3.1 µL
[1]; 200 mg/kg p.o., ± S.E., without aspirin
  Mucosal Blood Loss, HCl: 3.5 ± 0.7 µL
[1]; 200 mg/kg p.o., P > .05
  % Change from Control (mucosal blood loss): +88%
[1]; oral
  preventing aspirin-induced gastric bleeding (in words): effectiveness
[2]; [11]
  change in vivo at 100 mg/kg: -43%
[2]; [12]
  change in vivo at 100 mg/kg: -18.3%
[2]; [13]
  Gastric Bleeding Index: 21.7

## COc1ccccc1OCC(O)CO (stereo not shown) [Compound 8, 3-(2-methoxyphenoxy)-1,2-propanediol]
aspirin-induced bleeding
  effect on pH (gastric): a similar effect on pH was not observed
  volume of gastric secretion (in words): significant reduction
aspirin-induced bleeding; [14]
  Gastric Bleeding Index: 26.0 ± 2.6
  Percent Decrease In Mucosal Hemorrhage vs. Control: 13.3%
aspirin-induced bleeding; [15]
  Total Hemoglobin Loss: 26.7 ± 3.1 mg
  Volume Gastric Secretion: 6.4 ± 0.4 mL
aspirin-induced bleeding; [16]
  Gastric Bleeding Index: 18.0 ± 4.1
  Percent Decrease In Mucosal Hemorrhage vs. Control: 10.0%
aspirin-induced bleeding; [17]
  Total Hemoglobin Loss: 12.4 ± 2.3 mg
  Volume Gastric Secretion: 5.0 ± 0.2 mL
aspirin-induced bleeding; [18]
  Gastric Bleeding Index: 30.5 ± 2.4
  Percent Decrease In Mucosal Hemorrhage vs. Control: 14.2%
aspirin-induced bleeding; [19]
  Total Hemoglobin Loss: 29.4 ± 3.2 mg
  Volume Gastric Secretion: 8.0 ± 0.3 mL
aspirin-induced bleeding; [20]
  Total Hemoglobin Loss: 8.2 ± 2.5 mg
  Volume Gastric Secretion: 4.2 ± 0.4 mL
aspirin-induced bleeding; [21]
  Gastric Bleeding Index: 6.5 ± 4.7
  Percent Decrease In Mucosal Hemorrhage vs. Control: 77%
aspirin-induced bleeding; [22]
  Total Hemoglobin Loss: 7.7 ± 1.2 mg
  Volume Gastric Secretion: 3.9 ± 0.2 mL
aspirin-induced bleeding; [23]
  Gastric Bleeding Index: 9.5 ± 2.5
  Percent Decrease In Mucosal Hemorrhage vs. Control: 57.5%
aspirin-induced bleeding; [24]
  Gastric Bleeding Index: 21.0 ± 2.7
  Percent Decrease In Mucosal Hemorrhage vs. Control: 41.5%
aspirin-induced bleeding; [25]
  Total Hemoglobin Loss: 26.2 ± 4.6 mg
  Volume Gastric Secretion: 6.5 ± 0.3 mL
aspirin-induced bleeding; [26]
  Total Hemoglobin Loss: 14.5 ± 3.9 mg
  Volume Gastric Secretion: 4.1 ± 0.4 mL
aspirin-induced bleeding; [27]
  Gastric Bleeding Index: 6.0 ± 2.1
  Percent Decrease In Mucosal Hemorrhage vs. Control: 80.0%
aspirin-induced bleeding; [28]
  Total Hemoglobin Loss: 4.4 ± 1.0 mg
  Volume Gastric Secretion: 3.5 ± 0.3 mL
aspirin-induced bleeding; [29]
  Gastric Bleeding Index: 2.0 ± 1.1
  Percent Decrease In Mucosal Hemorrhage vs. Control: 90.0%
aspirin-induced bleeding; 200 mg/kg oral, aspirin ca 375 p.o., Series 3
  Percent Decrease In Mucosal Hemorrhage vs. Control: 46.5%
aspirin-induced bleeding; [30]
  Total Hemoglobin Loss: 20.2 ± 1.5 mg
  Volume Gastric Secretion: 6.5 ± 0.5 mL
aspirin-induced bleeding; 200 mg/kg oral, aspirin ca 375 p.o., Series 3, P <0.05
  Gastric Bleeding Index: 19.0 ± 3.9
aspirin-induced bleeding; 100 and 200 mg/kg
  loss of blood into the gastric contents: markedly reduced
aspirin-induced bleeding; 100 and 200 mg/kg by any route
  aspirin-induced gastric irritation: markedly reduced
[2]; ip, 1 h, 50 mg/kg i.p., aspirin 375 mg/kg p.o., read-out: Percent Decrease in Mucosal Bleeding vs Control
  change in vivo at 50 mg/kg: -57%
[2]; [11]
  change in vivo at 100 mg/kg: -40%
[2]; [13]
  Gastric Bleeding Index: 26.1
[3]; 30 mg/kg/hr i.v., aspirin 10 mg topical
  bleeding at 30 min: no bleeding
[3]; 10 and 30 mg/kg/hr i.v.
  gastric bleeding produced by aspirin with increasing doses: correspondingly reduced

## NC(=O)OCC(O)COc1ccc(Cl)cc1 (stereo not shown) [Compound 21, 3-(4-chlorophenoxy)-2-hydroxypropylcarbamate]
[2]; [11]
  change in vivo at 100 mg/kg: -78%
[2]; [12]
  change in vivo at 100 mg/kg: -30.5%
[2]; [13]
  Gastric Bleeding Index: 4.2

## CN(C)CCNC(=O)N1CCC(Oc2cccc(Cl)c2)C1 (stereo not shown) [Compound 30, 3-(3-chlorophenoxy)-N-[2-(dimethylaminoethyl)carboxamide]-1-pyrrolidine]
[2]; [11]
  change in vivo at 100 mg/kg: -100%
[2]; ip, 1 h, at 30 mg/kg (footnote b), read-out: Percent Decrease in Mucosal Bleeding vs Control
  change in vivo at 30 mg/kg: -97%
[2]; ip, at 30 mg/kg (footnote b), read-out: Vol. % Decrease in Gastric Secretion
  change in vivo at 30 mg/kg: -32.8%
[2]; at 30 mg/kg (footnote b)
  Gastric Bleeding Index: 0.8

— patent US4036957A, “Phenoxy compounds in combinations to suppress gastric bleeding in aspirin therapy” (priority 1975, dated 1977)
